This is an account of results in publication PMC6338644 (The FASEB Journal, 2018).

The term IC50 denotes the concentration that inhibits the measured activity by half. The term inhibition denotes the drop in the measured response relative to a control, in per cent.

Values joined by “and” are separate entries in the source; they are usually repeats but may differ in a detail not shown here. Equal values may be shown once. Where a name gives a salt, the structure may show the parent alone. Read-outs that look alike come from different tables or passages of the source.

Assay [1] deals with T1, His-tagged human SHIP2 phosphatase domain (Homo sapiens, UniProt O15357).
T1 construct: we produced a His-tagged human SHIP2 phosphatase domain; His; made in house
T1 sequence (O15357 419-732 limits assumed): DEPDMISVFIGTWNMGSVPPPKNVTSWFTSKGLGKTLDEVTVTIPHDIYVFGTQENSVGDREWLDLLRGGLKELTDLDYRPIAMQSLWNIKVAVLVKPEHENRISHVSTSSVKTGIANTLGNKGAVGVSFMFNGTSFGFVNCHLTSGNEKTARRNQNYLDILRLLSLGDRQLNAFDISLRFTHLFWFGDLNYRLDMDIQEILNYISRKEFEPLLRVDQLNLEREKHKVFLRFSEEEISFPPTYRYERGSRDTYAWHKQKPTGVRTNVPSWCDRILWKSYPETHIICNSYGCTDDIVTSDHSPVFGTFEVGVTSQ
Description: Malachite green phosphate assay, recombinant SHIP2 phosphatase domain (High Throughput Biomedicine Unit, 384-well). The class given is biochemical. On the procedure:
(§1) Recombinant His-tagged human SHIP2 and SHIP1 phosphatase domains were produced as previously described ([17]). […] Immunocomplexes were bound to protein G-Sepharose beads at +4°C for 2 h and washed 3 times with malachite green phosphate assay buffer {10 mM 4-(2-hydroxyethyl)-1-piperazineethanesulfonic acid (HEPES), pH 7.25, 6 mM MgCl2, 0.1% 3-[(3-cholamidopropyl)dimethylammonio]-1-propanesulfonate (CHAPS), 250 mM sucrose, and 0.25 mM EDTA}.
(§2) The catalytic activities of the recombinant SHIP2 and SHIP1 phosphatase domains were determined by malachite green phosphate assay at the High Throughput Biomedicine Unit (University of Helsinki) using D-myo-PI(3,4,5)P3 (Echelon Biosciences, Salt Lake City, UT, USA). Different volumes, resulting in desired final concentrations of inhibitors, were transferred to the wells of 384-well plates by using the Echo550 acoustic dispenser (Labcyte, San Jose, CA, USA). Recombinant protein (100 ng) in reaction buffer {10 mM HEPES, pH 7.25, 6 mM MgCl2, 0.1% CHAPS, 250 mM sucrose, and 0.25 mM EDTA} was placed in each well (7.5 µl), and the plates were preincubated at room temperature for 15 min. The phosphatase reaction was started by adding PI(3,4,5)P3 diluted in the reaction buffer (7.5 µl) to each well to reach a final concentration of 100 µM PI(3,4,5)P3 in the 15 µl reaction volume. The plates were incubated at room temperature for 20 min, after which, 15 µl BIOMOL green reagent (Biomol, Plymouth Meeting, PA, USA) was added to each well, and then the plates were incubated for another 25 min at room temperature. Absorbance was measured at 620 nm using a Pherastar FS plate reader (BMG Labtech, Offenburg, Germany). For the manual malachite green phosphate assay in 96-well plates [see Fig. 1; and activity measurement of phosphatase and tensin homolog (PTEN; Signalchem, Richmond, BC, Canada)], the reaction volume was increased to 50 µl, and 100 µl Biomol Green Reagent was added. The catalytic activity of SHIP2 immunoprecipitated from cell and tissue lysates was determined as in Saurus et al. ([22]), omitting SHIP2 inhibitors in lysis buffer, immunoprecipitation reaction, wash, and assay buffers. AS1949490 was synthesized, as described in Supplemental Fig. S1A, or purchased from Tocris Bioscience (Bristol, United Kingdom).

The target in assay [2] is T2, His-tagged human SHIP1 phosphatase domain (Homo sapiens, UniProt Q92835).
T2 construct: Recombinant His-tagged human SHIP2 and SHIP1 phosphatase domains were produced as previously described; His; made in house
T2 sequence (Q92835 399-715 limits assumed): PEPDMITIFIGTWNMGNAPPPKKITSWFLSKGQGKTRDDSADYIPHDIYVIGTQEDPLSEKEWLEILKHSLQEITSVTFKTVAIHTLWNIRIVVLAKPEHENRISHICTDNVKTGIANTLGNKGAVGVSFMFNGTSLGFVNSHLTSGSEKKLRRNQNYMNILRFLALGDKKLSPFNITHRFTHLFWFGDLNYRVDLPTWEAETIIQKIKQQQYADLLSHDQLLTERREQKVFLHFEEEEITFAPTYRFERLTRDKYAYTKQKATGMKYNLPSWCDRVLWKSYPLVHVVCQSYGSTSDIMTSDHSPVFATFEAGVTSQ
Description: Malachite green phosphate assay, recombinant SHIP1 phosphatase domain (High Throughput Biomedicine Unit). The class given is biochemical. The settings on record: for IC50: purified His-tagged phosphatase domain. On the procedure: as §1, §2

Assay [3] deals with SHIP2 immunoprecipitated from the lysates of L6 myotubes. The class given is cell-based, rat. The settings on record: 20–24 h. On the procedure: Immortalized human podocytes were maintained as previously described ([10]). […] Podocytes were lysed as previously described ([21]).
as §1, §2
Hydrogen bond is shown in green. Hydrophobic residues are shown in gray, positive-charged residues in blue, and negative-charged residues in red. […] The catalytic activity of SHIP2 was measured by manual malachite green phosphate assay.

Setting [4] is: inhibitors at 100 µM concentration, 100 µM.

Consider `C[C@H](NC(=O)c1sccc1OCc1ccc(Cl)cc1)c1ccccc1` [AS1949490], for which, in assay [1] (setting [4]), the “SHIP2 Inhibition efficiency” value is 26% and 25.9%. Besides, the “SHIP1 Inhibition efficiency” value in assay [2] (setting [4]) was 12% and 11.8%. The IC50 in assay [2] was more than 50 µM. In assay [3] (20 µM), the “reduction of SHIP2 activity in myotubes” value is approximately 30%.

Regarding `CN(C)C(=N)N=C(N)N` [Metformin, 1,1-Dimethylbiguanide hydrochloride], the inhibition at 100 µM stood at 39.4% in assay [1] (inhibitors at 100 µM concentration, read-out: SHIP2 Inhibition efficiency) and 11.1% in assay [2] (inhibitors at 100 µM concentration, read-out: SHIP1 Inhibition efficiency). The IC50 in assay [1] (purified His-tagged phosphatase domain, 100 µM PI(3,4,5)P3) was 6 µM; in assay [2], more than 50 µM. In assay [2], the “inhibition of SHIP1 (in words)” value was “does not inhibit”. Further, the “reduction of SHIP2 activity in myotubes” value is listed as approximately 30% in assay [3] (20 µM) and 24% in assay [3] (1 mM). In addition, in assay [3] (L6 myotubes overexpressing SHIP2, 1 mM), the “SHIP2 overexpression-induced SHIP2 activity in myotubes” value was “to the level in the control”.
